Data taken from patent publication US12419890B2, “Administration of sumo-activating enzyme inhibitor and checkpoint inhibitors” (Takeda Pharmaceutical Company Limited, priority 2019, dated 2025).

Target: T1, SUMO-activating enzyme (Homo sapiens, UniProt Q9UBT2)
T1 sequence (Q9UBT2 1-640): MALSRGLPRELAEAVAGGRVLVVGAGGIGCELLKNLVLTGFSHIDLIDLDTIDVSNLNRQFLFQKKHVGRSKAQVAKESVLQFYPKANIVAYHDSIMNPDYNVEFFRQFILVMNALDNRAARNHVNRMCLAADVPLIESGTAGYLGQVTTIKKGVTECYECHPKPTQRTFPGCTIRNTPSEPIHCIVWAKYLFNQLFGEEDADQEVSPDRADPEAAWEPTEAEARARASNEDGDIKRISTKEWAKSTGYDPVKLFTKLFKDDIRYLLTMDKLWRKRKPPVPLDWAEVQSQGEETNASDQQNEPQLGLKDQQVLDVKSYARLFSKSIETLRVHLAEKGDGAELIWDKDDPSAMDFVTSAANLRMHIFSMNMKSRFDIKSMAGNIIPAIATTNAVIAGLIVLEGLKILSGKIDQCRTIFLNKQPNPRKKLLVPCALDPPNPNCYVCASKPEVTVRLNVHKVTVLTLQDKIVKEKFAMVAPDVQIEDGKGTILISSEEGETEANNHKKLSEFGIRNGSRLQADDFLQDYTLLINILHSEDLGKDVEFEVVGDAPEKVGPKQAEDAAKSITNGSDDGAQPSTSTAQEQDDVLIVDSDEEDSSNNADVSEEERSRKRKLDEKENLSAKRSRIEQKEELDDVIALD
T1 sequence (Q9UBE0 1-346 partner): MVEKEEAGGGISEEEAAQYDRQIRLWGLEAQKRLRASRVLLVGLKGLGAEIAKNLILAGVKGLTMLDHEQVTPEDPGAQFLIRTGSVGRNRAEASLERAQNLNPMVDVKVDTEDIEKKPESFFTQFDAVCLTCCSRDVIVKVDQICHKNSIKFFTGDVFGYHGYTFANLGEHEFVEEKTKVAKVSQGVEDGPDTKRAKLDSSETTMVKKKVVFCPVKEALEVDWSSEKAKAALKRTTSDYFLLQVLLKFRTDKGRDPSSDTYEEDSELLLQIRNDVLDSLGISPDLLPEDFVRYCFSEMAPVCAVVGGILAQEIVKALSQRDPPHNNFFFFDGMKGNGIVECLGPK
Test: biochemical assays of SUMO-activating enzyme
Source text: SAE inhibitors, as disclosed herein, are described, for example, in US 2016/0009744 and U.S. Pat. No. 9,695,154. They may be prepared by methods known to one skilled in the art and/or according to the methods described in US 2016/0009744 and U.S. Pat. No. 9,695,154, which is hereby incorporated by reference in its entirety. Central to the mechanism of action of useful SAE inhibitors, such as Compound I-263a, in combinations and methods of the present disclosure is production of type 1 IFNs and induction of an innate immune response with activation of dendritic cells, natural killer (NK) cells and macrophages.

`Cc1sc(C(=O)c2cncnc2N[C@@H]2C[C@H](COS(N)(=O)=O)[C@@H](O)C2)cc1[C@@H]1NCCc2ccc(Cl)cc21` [Compound I-263a, [(1R,2S,4R)-4-{[5-({4-[(1R)-7-chloro-1,2,3,4-tetrahydroisoquinolin-1-yl]-5-methyl-2-thienyl}carbonyl)pyrimidin-4-yl]amino}-2-hydroxycyclopentyl]methyl sulfamate] was tested. Which “inhibition of SUMO-activating enzyme activity” value (mechanism-based inhibitor forming a covalent adduct with SUMO) did it give?
Its value is “potently inhibits enzyme activity”.

What about the “selectivity for SUMO-activating enzyme” value (over ubiquitin-activating enzymes, Nedd8-activating enzyme, and autophagy related 7 enzyme) of the same compound?
Its value is “Strong selectivity”.
